# According to patent publication US8309110B2, “Biocide composition and sterilization method using the same” (priority 1998, dated 2012):
# Test system: mixed solution of 8 types of bacteria
# Assay: MIC and synergistic index on a mixed solution of 8 types of bacteria, two fold dilution method
# Format: cell-based
# Details: 72 h; 30 degrees centigrade, 3 days, Tryptic Soy Broth; read-out: Qa: MIC value on the mixed strain of a single 3-isothiazolone
# Protocol: The sterilizing effects of 3-isothiazolone and polyhexamethyleneguanidine phosphate on a mixed solution of 8 types of bacteria (Enterobacter aerogens ATCC 13048, Escherichia coli ATCC 11229, Micrococcus luteus ATCC 9341, Pseudomonas aeruginosa ATCC 15442, Klebsiella pneumoniae, Staphylococcus epidermis ATCC 155, Staphylococcus aureus ATCC 6538, and Bacillus subtilis ATCC 6984) were tested using Tryptic Soy Broth manufactured by Difco Corporation according to the two fold dilution method. The minimum inhibiting concentration of each biocide and mixtures thereof were determined by observation with the naked eye of the degree of muddiness of the lowest concentration in which growth was deteriorated after culturing a culture fluid in which biocides and microorganisms are added at 30 degrees centigrade for 3 days.
structure (smiles),measurement,value
O=c1ccs[nH]1 [3-isothiazolone],MIC,18.8 µg/mL
